# From patent US20100227356A1, “METHODS FOR ASSESSING EFFECTS ON SKELETAL GROWTH” (priority 2008, published 2010)
# Tested on: neonatal limb culture
# Assay: X-ray imaging of neonatal mouse hind limb organ culture (effect of bisphosphonates on bone density)
# Format: cell-based, Swiss albino mouse
# Settings: 1 mM pamidronate in culture medium (well A) vs control (well B); neonatal limb in culture for 40 hours; FIG. 3
# Excerpt: The method of the invention may be used to monitor the dynamic growth of an articulated skeletal […] by capturing a series of images overtime. In this example, an articulated lower portion (hind limb) of a limb of a neonatal, day-old Swiss albino mouse was removed and cultured in a well plate. The limb was scraped with a scalpel to abrade any skin and flesh sufficiently to allow an organ culture medium to reach the skeletal members. The scraped limb was superficially embedded in 1% agarose. The medium used for culture was 4 ml of minimum essential medium (Delbecco's Modified Eagle Medium), supplemented with 1 mM β glycerophosphate, ascorbic acid, 0.2% bovine serum albumin and antibiotics. The antibiotics contained 100 units/ml penicillin, and 100 μg/ml streptomycin. The skeletal members of the limbs continued to grow within the cultures and were imaged with X-rays (Time-Lapse-3 hrs; 11 to […] using a multi-modal system as previously described). Bone growth and mineral deposition could be measured, as could X-ray and column densities. Because the limb was articulated, the growth of individual skeletal members was influenced by neighboring members, just as in the case of growth in a living animal. The analytical X-ray imaging methodology according to the invention allows measurement of the growth of skeletal members of a neonatal mouse limb grown in vitro in organ culture. […]
compound,measurement,value
"NCCC(O)(P(=O)(O)O)P(=O)(O)O [pamidronate, Pamidronate]",bone density and size versus control (X-ray images),differences in bone density and size are observable
